From PubChem BioAssay (NCI)
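Tested at 5 concentrations; 48 h exposure; 96-well plates; endpoints linearly interpolated, else capped at highest concentration. TGI: concentration producing complete growth inhibition.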

How the values were obtained:
Assay in all cases: DTP human tumour cell line panel, 48 h
[1] = tested on: OVCAR-4 ovarian
[2] = tested on: NCI-H460 lung
[3] = tested on: OVCAR-8 ovarian
[4] = tested on: SN12C renal
[5] = tested on: HOP-62 NSCLC
[6] = tested on: SR leukemia
[7] = tested on: T-47D breast
[8] = tested on: LOX IMVI melanoma
[9] = tested on: 786-0 renal
[10] = tested on: SK-OV-3 ovarian

COc1ccc(-c2oc3c(OC)c(OC)c(OC)c(OC)c3c(=O)c2OC)cc1OC gave a TGI [1] of over 100 µM, a TGI [2] of 57 µM and a TGI [3] of 93.6 µM. It also gave a TGI [4] of over 100 µM, a TGI [5] of 59.8 µM and a TGI [6] of 79.9 µM. The TGI [7] was over 100 µM, the TGI [8] was over 100 µM and the TGI [9] was over 100 µM. The TGI [10] was over 100 µM.
